Experimental data: ChEMBL document CHEMBL1155836, “Discovery of imidazole carboxamides as potent and selective CCK1R agonists” (Bioorg Med Chem Lett, 2008)
The source made the active and inactive calls. The calls are words filed in the database; no cut-off is given here.

The compounds below were run against T1, Gastrin/cholecystokinin type B receptor (Homo sapiens) (UniProt P32239) (assay: Agonist activity against human CCK2 receptor assessed as receptor activation at 10000 nM).
T1 sequence (whole entry): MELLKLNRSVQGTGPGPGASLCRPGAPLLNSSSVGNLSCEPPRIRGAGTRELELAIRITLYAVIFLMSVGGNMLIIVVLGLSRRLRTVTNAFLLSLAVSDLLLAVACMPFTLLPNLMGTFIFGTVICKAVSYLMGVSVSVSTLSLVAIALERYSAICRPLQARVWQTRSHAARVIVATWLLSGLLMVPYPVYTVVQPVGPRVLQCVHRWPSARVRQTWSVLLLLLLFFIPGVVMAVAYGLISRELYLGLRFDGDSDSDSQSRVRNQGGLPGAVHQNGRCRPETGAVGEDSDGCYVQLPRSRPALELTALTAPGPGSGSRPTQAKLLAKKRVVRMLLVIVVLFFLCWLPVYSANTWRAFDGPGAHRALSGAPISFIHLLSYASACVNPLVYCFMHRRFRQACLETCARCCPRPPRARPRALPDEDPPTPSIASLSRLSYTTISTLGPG
Format: functional

Activity [%]	Structure (SMILES)
< 12	CCOc1cccc(-n2cc(C(=O)N3CCN(c4ccc5ccccc5c4)CC3)nc2-c2ccc(F)cc2F)c1
< 21	Cc1ccc(-c2nc(C(=O)N3CCN(c4ccc5ccccc5c4)CC3)cn2-c2cccc(OCC(F)(F)F)c2)cc1
< 21	CCc1cccc(-n2cc(C(=O)N3CCN(c4ccc5ccccc5c4)CC3)nc2-c2ccc(C)cc2)c1
< 36	CCOc1cccc(-n2cc(C(=O)N3CCN(c4cc(C(=O)O)c5ccccc5c4)CC3)nc2-c2ccc(F)cc2)c1
< 36	Cc1ccc(-c2nc(C(=O)N3CCN(c4cc(C(=O)O)c5ccccc5c4)CC3)cn2-c2ccc3c(c2)OCCO3)c(F)c1
< 12	CCOc1cccc(-n2cc(C(=O)N3CCN(c4ccc5ccccc5c4)CC3)nc2-c2ccccc2F)c1
< 36	O=C(c1cn(-c2ccc3c(c2)OCCO3)c(-c2ccc(F)cc2)n1)N1CCN(c2cnc3ccccc3c2)CC1
< 12	CCOc1cccc(-n2cc(C(=O)N3CCN(c4ccc5ccccc5c4)CC3)nc2-c2ccc(C)cc2)c1
< 21	Cc1ccc(-c2nc(C(=O)N3CCN(c4ccc5ccccc5c4)CC3)cn2-c2ccc3c(c2)OCCO3)cc1
< 20	COc1cccc(-n2cc(C(=O)N3CCN(c4ccc5cnccc5c4)CC3)nc2-c2ccc(C)cc2)c1
< 12	CCOc1cccc(-n2cc(C(=O)N3CCN(c4ccc5ccccc5c4)CC3)nc2-c2ccc(F)cc2)c1
< 21	CCCOc1cccc(-n2cc(C(=O)N3CCN(c4ccc5ccccc5c4)CC3)nc2-c2ccc(C)cc2)c1
< 20	COc1cccc(-n2cc(C(=O)N3CCN(c4cc5ccccc5cn4)CC3)nc2-c2ccc(C)cc2)c1
< 20	COc1cccc(-n2cc(C(=O)N3CCN(c4ccc5ncccc5c4)CC3)nc2-c2ccc(C)cc2)c1
< 12	CCOc1cccc(-n2cc(C(=O)N3CCN(c4ccc5ccccc5c4)CC3)nc2-c2c(F)cccc2F)c1
< 21	COc1ccc(-n2cc(C(=O)N3CCN(c4ccc5ccccc5c4)CC3)nc2-c2ccc(C)cc2)cc1
4.4	COc1cccc(-c2cc(C(=O)N3CCN(c4cccc(Cl)c4)CC3)nn2-c2ccc(C)cc2)c1
< 12	CCOc1cccc(-n2cc(C(=O)N3CCN(c4ccc5ccccc5c4)CC3)nc2-c2ccc(C)cc2F)c1

The compounds below were run against T1, Gastrin/cholecystokinin type B receptor (Homo sapiens) (assay: Agonist activity against human CCK2 receptor).
Format: functional

Activity	Structure (SMILES)
inactive	CCOc1cccc(-n2cc(C(=O)N3CCN(c4ccc5ccccc5c4)CC3)nc2-c2ccc(F)cc2F)c1
inactive	Cc1ccc(-c2nc(C(=O)N3CCN(c4ccc5ccccc5c4)CC3)cn2-c2cccc(OCC(F)(F)F)c2)cc1
inactive	CCc1cccc(-n2cc(C(=O)N3CCN(c4ccc5ccccc5c4)CC3)nc2-c2ccc(C)cc2)c1
inactive	CCOc1cccc(-n2cc(C(=O)N3CCN(c4cc(C(=O)O)c5ccccc5c4)CC3)nc2-c2ccc(F)cc2)c1
inactive	Cc1ccc(-c2nc(C(=O)N3CCN(c4cc(C(=O)O)c5ccccc5c4)CC3)cn2-c2ccc3c(c2)OCCO3)c(F)c1
inactive	CCOc1cccc(-n2cc(C(=O)N3CCN(c4ccc5ccccc5c4)CC3)nc2-c2ccccc2F)c1
inactive	O=C(c1cn(-c2ccc3c(c2)OCCO3)c(-c2ccc(F)cc2)n1)N1CCN(c2cnc3ccccc3c2)CC1
inactive	CCOc1cccc(-n2cc(C(=O)N3CCN(c4ccc5ccccc5c4)CC3)nc2-c2ccc(C)cc2)c1
inactive	Cc1ccc(-c2nc(C(=O)N3CCN(c4ccc5ccccc5c4)CC3)cn2-c2ccc3c(c2)OCCO3)cc1
inactive	COc1cccc(-n2cc(C(=O)N3CCN(c4ccc5cnccc5c4)CC3)nc2-c2ccc(C)cc2)c1
inactive	CCOc1cccc(-n2cc(C(=O)N3CCN(c4ccc5ccccc5c4)CC3)nc2-c2ccc(F)cc2)c1
inactive	CCCOc1cccc(-n2cc(C(=O)N3CCN(c4ccc5ccccc5c4)CC3)nc2-c2ccc(C)cc2)c1
inactive	COc1cccc(-n2cc(C(=O)N3CCN(c4cc5ccccc5cn4)CC3)nc2-c2ccc(C)cc2)c1
inactive	COc1cccc(-n2cc(C(=O)N3CCN(c4ccc5ncccc5c4)CC3)nc2-c2ccc(C)cc2)c1
inactive	CCOc1cccc(-n2cc(C(=O)N3CCN(c4ccc5ccccc5c4)CC3)nc2-c2c(F)cccc2F)c1
inactive	COc1ccc(-n2cc(C(=O)N3CCN(c4ccc5ccccc5c4)CC3)nc2-c2ccc(C)cc2)cc1
inactive	CCOc1cccc(-n2cc(C(=O)N3CCN(c4ccc5ccccc5c4)CC3)nc2-c2ccc(C)cc2F)c1

What follows are compounds tested against T2, Gastrin/cholecystokinin type B receptor (Homo sapiens, UniProt P32239) (assay: Inhibition of human CCK2 receptor).
T2 sequence (P32239 whole entry): T1 sequence (whole entry)

IC50 [nM]	Structure (SMILES)
> 10000	Cc1ccc(-c2nc(C(=O)N3CCN(c4cc(C(=O)O)c5ccccc5c4)CC3)cn2-c2ccc3c(c2)OCCO3)c(F)c1
> 10000	O=C(c1cn(-c2ccc3c(c2)OCCO3)c(-c2ccc(F)cc2)n1)N1CCN(c2cnc3ccccc3c2)CC1

Each compound was assayed against T3, Cholecystokinin receptor type A (Homo sapiens, UniProt P32238) (assay: Inhibition of human CCK1 receptor).
T3 sequence (P32238 whole entry): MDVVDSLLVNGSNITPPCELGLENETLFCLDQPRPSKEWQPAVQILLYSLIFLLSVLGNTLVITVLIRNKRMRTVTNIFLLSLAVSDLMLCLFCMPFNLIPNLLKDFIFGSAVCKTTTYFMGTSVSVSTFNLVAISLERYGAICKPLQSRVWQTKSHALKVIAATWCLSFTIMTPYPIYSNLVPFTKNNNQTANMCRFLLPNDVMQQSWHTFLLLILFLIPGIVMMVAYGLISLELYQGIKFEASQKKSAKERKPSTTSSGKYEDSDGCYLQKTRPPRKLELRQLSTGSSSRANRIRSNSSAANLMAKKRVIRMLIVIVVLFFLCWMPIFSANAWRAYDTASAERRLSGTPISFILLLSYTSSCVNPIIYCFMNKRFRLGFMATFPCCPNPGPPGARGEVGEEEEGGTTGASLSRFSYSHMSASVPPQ

IC50 [nM]	Structure (SMILES)
1	CCOc1cccc(-n2cc(C(=O)N3CCN(c4ccc5ccccc5c4)CC3)nc2-c2ccc(F)cc2F)c1
200	Cc1ccc(-c2nc(C(=O)N3CCN(c4ccc5ccccc5c4)CC3)cn2-c2cccc(OCC(F)(F)F)c2)cc1
43	CCc1cccc(-n2cc(C(=O)N3CCN(c4ccc5ccccc5c4)CC3)nc2-c2ccc(C)cc2)c1
0.03	Cc1ccc(-c2nc(C(=O)N3CCN(c4cc(C(=O)O)c5ccccc5c4)CC3)cn2-c2ccc3c(c2)OCCO3)c(F)c1
1.9	CCOc1cccc(-n2cc(C(=O)N3CCN(c4ccc5ccccc5c4)CC3)nc2-c2ccccc2F)c1
0.12	O=C(c1cn(-c2ccc3c(c2)OCCO3)c(-c2ccc(F)cc2)n1)N1CCN(c2cnc3ccccc3c2)CC1
2.3	CCOc1cccc(-n2cc(C(=O)N3CCN(c4ccc5ccccc5c4)CC3)nc2-c2ccc(C)cc2)c1
0.42	Cc1ccc(-c2nc(C(=O)N3CCN(c4ccc5ccccc5c4)CC3)cn2-c2ccc3c(c2)OCCO3)cc1
190	COc1cccc(-n2cc(C(=O)N3CCN(c4ccc5cnccc5c4)CC3)nc2-c2ccc(C)cc2)c1
1.9	CCOc1cccc(-n2cc(C(=O)N3CCN(c4ccc5ccccc5c4)CC3)nc2-c2ccc(F)cc2)c1
160	CCCOc1cccc(-n2cc(C(=O)N3CCN(c4ccc5ccccc5c4)CC3)nc2-c2ccc(C)cc2)c1
1.9	COc1cccc(-n2cc(C(=O)N3CCN(c4cc5ccccc5cn4)CC3)nc2-c2ccc(C)cc2)c1
8.6	COc1cccc(-n2cc(C(=O)N3CCN(c4ccc5ncccc5c4)CC3)nc2-c2ccc(C)cc2)c1
1.9	CCOc1cccc(-n2cc(C(=O)N3CCN(c4ccc5ccccc5c4)CC3)nc2-c2c(F)cccc2F)c1
6.9	COc1ccc(-n2cc(C(=O)N3CCN(c4ccc5ccccc5c4)CC3)nc2-c2ccc(C)cc2)cc1
41	COc1cccc(-c2cc(C(=O)N3CCN(c4cccc(Cl)c4)CC3)nn2-c2ccc(C)cc2)c1
0.56	CCOc1cccc(-n2cc(C(=O)N3CCN(c4ccc5ccccc5c4)CC3)nc2-c2ccc(C)cc2F)c1

What follows are compounds tested against T1, Gastrin/cholecystokinin type B receptor (Homo sapiens) (assay: Inhibition of human CCK2 receptor at 10000 nM).

inhibition [%]	Structure (SMILES)
< 24	CCOc1cccc(-n2cc(C(=O)N3CCN(c4cc(C(=O)O)c5ccccc5c4)CC3)nc2-c2ccc(F)cc2)c1
< 24	Cc1ccc(-c2nc(C(=O)N3CCN(c4cc(C(=O)O)c5ccccc5c4)CC3)cn2-c2ccc3c(c2)OCCO3)c(F)c1
< 24	O=C(c1cn(-c2ccc3c(c2)OCCO3)c(-c2ccc(F)cc2)n1)N1CCN(c2cnc3ccccc3c2)CC1

These compounds were tested against T3, Cholecystokinin receptor type A (assay: Agonist activity against human CCK1 receptor).
Format: functional

EC50 [nM]	Structure (SMILES)
1.1	CCOc1cccc(-n2cc(C(=O)N3CCN(c4ccc5ccccc5c4)CC3)nc2-c2ccc(F)cc2F)c1
1350	Cc1ccc(-c2nc(C(=O)N3CCN(c4ccc5ccccc5c4)CC3)cn2-c2cccc(OCC(F)(F)F)c2)cc1
65	CCc1cccc(-n2cc(C(=O)N3CCN(c4ccc5ccccc5c4)CC3)nc2-c2ccc(C)cc2)c1
0.077	Cc1ccc(-c2nc(C(=O)N3CCN(c4cc(C(=O)O)c5ccccc5c4)CC3)cn2-c2ccc3c(c2)OCCO3)c(F)c1
6.3	CCOc1cccc(-n2cc(C(=O)N3CCN(c4ccc5ccccc5c4)CC3)nc2-c2ccccc2F)c1
0.26	O=C(c1cn(-c2ccc3c(c2)OCCO3)c(-c2ccc(F)cc2)n1)N1CCN(c2cnc3ccccc3c2)CC1
6.6	CCOc1cccc(-n2cc(C(=O)N3CCN(c4ccc5ccccc5c4)CC3)nc2-c2ccc(C)cc2)c1
0.99	Cc1ccc(-c2nc(C(=O)N3CCN(c4ccc5ccccc5c4)CC3)cn2-c2ccc3c(c2)OCCO3)cc1
106	COc1cccc(-n2cc(C(=O)N3CCN(c4ccc5cnccc5c4)CC3)nc2-c2ccc(C)cc2)c1
2.9	CCOc1cccc(-n2cc(C(=O)N3CCN(c4ccc5ccccc5c4)CC3)nc2-c2ccc(F)cc2)c1
962	CCCOc1cccc(-n2cc(C(=O)N3CCN(c4ccc5ccccc5c4)CC3)nc2-c2ccc(C)cc2)c1
8.4	COc1cccc(-n2cc(C(=O)N3CCN(c4cc5ccccc5cn4)CC3)nc2-c2ccc(C)cc2)c1
9.3	COc1cccc(-n2cc(C(=O)N3CCN(c4ccc5ncccc5c4)CC3)nc2-c2ccc(C)cc2)c1
4.4	CCOc1cccc(-n2cc(C(=O)N3CCN(c4ccc5ccccc5c4)CC3)nc2-c2c(F)cccc2F)c1
20	COc1ccc(-n2cc(C(=O)N3CCN(c4ccc5ccccc5c4)CC3)nc2-c2ccc(C)cc2)cc1
308	COc1cccc(-c2cc(C(=O)N3CCN(c4cccc(Cl)c4)CC3)nn2-c2ccc(C)cc2)c1
1.9	CCOc1cccc(-n2cc(C(=O)N3CCN(c4ccc5ccccc5c4)CC3)nc2-c2ccc(C)cc2F)c1

What follows are compounds tested against T4, Cholecystokinin receptor type A (Homo sapiens) (UniProt P32238) (assay: Agonist activity against human CCK1 receptor assessed as receptor activation at 10000 nM).
T4 sequence (whole entry): T3 sequence (P32238 whole entry)
Format: functional

Activity [%]	Structure (SMILES)
103	CCOc1cccc(-n2cc(C(=O)N3CCN(c4ccc5ccccc5c4)CC3)nc2-c2ccc(F)cc2F)c1
95	Cc1ccc(-c2nc(C(=O)N3CCN(c4ccc5ccccc5c4)CC3)cn2-c2cccc(OCC(F)(F)F)c2)cc1
101	CCc1cccc(-n2cc(C(=O)N3CCN(c4ccc5ccccc5c4)CC3)nc2-c2ccc(C)cc2)c1
95	CCOc1cccc(-n2cc(C(=O)N3CCN(c4cc(C(=O)O)c5ccccc5c4)CC3)nc2-c2ccc(F)cc2)c1
71	Cc1ccc(-c2nc(C(=O)N3CCN(c4cc(C(=O)O)c5ccccc5c4)CC3)cn2-c2ccc3c(c2)OCCO3)c(F)c1
110	CCOc1cccc(-n2cc(C(=O)N3CCN(c4ccc5ccccc5c4)CC3)nc2-c2ccccc2F)c1
101	O=C(c1cn(-c2ccc3c(c2)OCCO3)c(-c2ccc(F)cc2)n1)N1CCN(c2cnc3ccccc3c2)CC1
93	CCOc1cccc(-n2cc(C(=O)N3CCN(c4ccc5ccccc5c4)CC3)nc2-c2ccc(C)cc2)c1
89	Cc1ccc(-c2nc(C(=O)N3CCN(c4ccc5ccccc5c4)CC3)cn2-c2ccc3c(c2)OCCO3)cc1
86	COc1cccc(-n2cc(C(=O)N3CCN(c4ccc5cnccc5c4)CC3)nc2-c2ccc(C)cc2)c1
96	CCOc1cccc(-n2cc(C(=O)N3CCN(c4ccc5ccccc5c4)CC3)nc2-c2ccc(F)cc2)c1
89	CCCOc1cccc(-n2cc(C(=O)N3CCN(c4ccc5ccccc5c4)CC3)nc2-c2ccc(C)cc2)c1
89	COc1cccc(-n2cc(C(=O)N3CCN(c4cc5ccccc5cn4)CC3)nc2-c2ccc(C)cc2)c1
108	COc1cccc(-n2cc(C(=O)N3CCN(c4ccc5ncccc5c4)CC3)nc2-c2ccc(C)cc2)c1
109	CCOc1cccc(-n2cc(C(=O)N3CCN(c4ccc5ccccc5c4)CC3)nc2-c2c(F)cccc2F)c1
110	COc1ccc(-n2cc(C(=O)N3CCN(c4ccc5ccccc5c4)CC3)nc2-c2ccc(C)cc2)cc1
82	COc1cccc(-c2cc(C(=O)N3CCN(c4cccc(Cl)c4)CC3)nn2-c2ccc(C)cc2)c1
116	CCOc1cccc(-n2cc(C(=O)N3CCN(c4ccc5ccccc5c4)CC3)nc2-c2ccc(C)cc2F)c1
